Where “and” joins values, the source holds several entries; their conditions need not be identical. Identical values can stand only once. Like-named read-outs stand apart in the source and are kept apart here.
Assay: Pharmacokinetic study of I-11 in female BALB/c mice (Example 4)
Format: in vivo, Balb/c mouse
Description: Pharmacokinetic Study in Female BALB/c Mice: Balb/c mouse, 17-19 g, 8-10 weeks, female, N=27, purchased from JH Laboratory Animal Co. LTD
Fasted overnight and fed at 4 hr post dosing.
Animals dosed with sampling at 0.083, 0.25, 0.5, 1, 2, 4, 8, 24 hr post dose. 8 time points. Semi-serial bleeding for plasma only. The animals were restrained manually at the designated time points. Approx. 110 μL of blood/time point was taken from the animals via facial vein into tubes with K2EDTA. Blood sample was centrifuged at 4° C. (2000 g, 5 min) to obtain plasma within 15 m after sample collection. Put on wet ice, then plasma samples were stored at approximately −70° C. until analysis.
For oral gavage, compound was dosed as a suspension in […] carboxymethyl cellulose (CMC), 0.2% Tween 80 in water. Compound was orally dosed at 50 mg/Kg, at 100 mg/Kg.
For IV dosing, compound was dissolved into a solution of […], […] HS 15 and 90% Saline. Compound was IV dosed at 5 mg/Kg.
Plasma samples were analyzed for I-11 using LC-MS using a calibration curve of known concentrations.
FIG. 1 describes the mean plasma concentration-time profiles of I-11 after single IV dose of 5 mg/kg, PO dose of 50 mg/kg and 100 mg/kg in female Balb/c mice (N=3/time point). • Note: • 1. […] The IV dosing solutions were prepared in 5% DMSO+5% Solutol HS15+90% Saline. The PO dosing solutions were prepared in 1% CMC-Na+0.2% Tween 80 in water. • 3. BQL=Below quantifiable limit of 3.00 ng/mL for I-11 in female Balb/c mouse plasma samples. • 4. PK parameters were estimated by non-compartmental model using WinNonlin 8.2. If the adjusted rsq (linear regression coefficient of the concentration value on the terminal phase) is less than 0.9, T1/2 might not be accurately estimated. • 5. F value was determined by the following equation: • If AUClast/AUCINF>80%:
F=(AUCINF-EX×DOSEIV)/(AUCINF-IV×DOSEEX)[…] • If AUClast/AUCINF<80% or AUCINF not available:
F=([…])/(AUClast-IV×DOSEEX)[…] • 6. NA: Not available.

[1] = IV 5 mg/kg, 24 hr, BQL = below quantifiable limit of 3.00 ng/mL

Plasma concentration Individual (IV 5 mg/kg, 0.083 hr, 5 mg/kg): 9810 ng/mL and 12300 ng/mL
Plasma concentration Individual (IV 5 mg/kg, 0.25 hr, 5 mg/kg): 5200 ng/mL and 5420 ng/mL
Plasma concentration Individual (IV 5 mg/kg, 0.5 hr, 5 mg/kg): 2920 ng/mL and 1730 ng/mL
Plasma concentration Individual (IV 5 mg/kg, 1 hr, 5 mg/kg): 865 ng/mL and 1180 ng/mL and 1810 ng/mL
Plasma concentration Individual (IV 5 mg/kg, 2 hr, 5 mg/kg): 142 ng/mL
Plasma concentration Individual (IV 5 mg/kg, 4 hr, 5 mg/kg): 48.5 ng/mL and 29.8 ng/mL
Plasma concentration Individual (IV 5 mg/kg, 8 hr, 5 mg/kg): 26.1 ng/mL and 15.9 ng/mL
Plasma concentration Individual [1]: BQL
Plasma concentration Mean [1]: BQL
F (PO 50 mg/kg vs IV 5 mg/kg): 50.9%
Plasma concentration Individual (PO 50 mg/kg, 0.083 hr, 50 mg/kg): 288 ng/mL and 220 ng/mL
Plasma concentration Individual (PO 50 mg/kg, 0.25 hr, 50 mg/kg): 1880 ng/mL and 2380 ng/mL and 1030 ng/mL
Plasma concentration Individual (PO 50 mg/kg, 0.5 hr, 50 mg/kg): 6750 ng/mL and 6980 ng/mL
Plasma concentration Individual (PO 50 mg/kg, 1 hr, 50 mg/kg): 5940 ng/mL and 6670 ng/mL
Plasma concentration Individual (PO 50 mg/kg, 2 hr, 50 mg/kg): 7770 ng/mL and 3890 ng/mL
Plasma concentration Individual (PO 50 mg/kg, 4 hr, 50 mg/kg): 1750 ng/mL and 2280 ng/mL
Plasma concentration Individual (PO 50 mg/kg, 8 hr, 50 mg/kg): 249 ng/mL and 325 ng/mL
Plasma concentration Individual (PO 50 mg/kg, 24 hr, 50 mg/kg): 3.85 ng/mL and 64.0 ng/mL and 182 ng/mL
F (PO 100 mg/kg vs IV 5 mg/kg): 60.0%
Plasma concentration Individual (PO 100 mg/kg, 0.083 hr, 100 mg/kg): 318 ng/mL and 232 ng/mL
Plasma concentration Individual (PO 100 mg/kg, 0.25 hr, 100 mg/kg): 2990 ng/mL and 2700 ng/mL
Plasma concentration Individual (PO 100 mg/kg, 1 hr, 100 mg/kg): 6710 ng/mL and 7030 ng/mL
Plasma concentration Individual (PO 100 mg/kg, 2 hr, 100 mg/kg): 14100 ng/mL and 12300 ng/mL
Plasma concentration Individual (PO 100 mg/kg, 8 hr, 100 mg/kg): 444 ng/mL and 503 ng/mL and 953 ng/mL
Plasma concentration Individual (PO 100 mg/kg, 24 hr, 100 mg/kg): 40.6 ng/mL and 57.5 ng/mL and 84.2 ng/mL
clearance (female, BALB/c, mouse, plasma, iv, 5 mg/kg, IV 5 mg/kg): 15.8 mL/min/kg
concentration at 0.083 hr (female, BALB/c, mouse, plasma, iv, 5 mg/kg, IV 5 mg/kg, 0.083 hr, read-out: Plasma concentration Individual): 7980 ng/mL
concentration at 0.083 hr (female, BALB/c, mouse, plasma, iv, 5 mg/kg, IV 5 mg/kg, 0.083 hr, read-out: Plasma concentration Mean): 10000 ng/mL
concentration at 0.25 hr (female, BALB/c, mouse, plasma, iv, 5 mg/kg, IV 5 mg/kg, 0.25 hr, read-out: Plasma concentration Individual): 5600 ng/mL
concentration at 0.25 hr (female, BALB/c, mouse, plasma, iv, 5 mg/kg, IV 5 mg/kg, 0.25 hr, read-out: Plasma concentration Mean): 5410 ng/mL
concentration at 0.5 hr (female, BALB/c, mouse, plasma, iv, 5 mg/kg, IV 5 mg/kg, 0.5 hr, read-out: Plasma concentration Individual): 2710 ng/mL
concentration at 0.5 hr (female, BALB/c, mouse, plasma, iv, 5 mg/kg, IV 5 mg/kg, 0.5 hr, read-out: Plasma concentration Mean): 2450 ng/mL
concentration at 1 hr (female, BALB/c, mouse, plasma, iv, 5 mg/kg, IV 5 mg/kg, 1 hr, read-out: Plasma concentration Mean): 1280 ng/mL
concentration at 2 hr (female, BALB/c, mouse, plasma, iv, 5 mg/kg, IV 5 mg/kg, 2 hr, read-out: Plasma concentration Individual): 135 ng/mL
concentration at 2 hr (female, BALB/c, mouse, plasma, iv, 5 mg/kg, IV 5 mg/kg, 2 hr, read-out: Plasma concentration Mean): 140 ng/mL
concentration at 4 hr (female, BALB/c, mouse, plasma, iv, 5 mg/kg, IV 5 mg/kg, 4 hr, read-out: Plasma concentration Individual): 58.3 ng/mL
concentration at 4 hr (female, BALB/c, mouse, plasma, iv, 5 mg/kg, IV 5 mg/kg, 4 hr, read-out: Plasma concentration Mean): 45.5 ng/mL
concentration at 8 hr (female, BALB/c, mouse, plasma, iv, 5 mg/kg, IV 5 mg/kg, 8 hr, read-out: Plasma concentration Individual): 19 ng/mL
concentration at 8 hr (female, BALB/c, mouse, plasma, iv, 5 mg/kg, IV 5 mg/kg, 8 hr, read-out: Plasma concentration Mean): 20.3 ng/mL
concentration at 0.083 hr (female, BALB/c, mouse, plasma, po, 50 mg/kg, PO 50 mg/kg, 0.083 hr, read-out: Plasma concentration Individual): 263 ng/mL
concentration at 0.083 hr (female, BALB/c, mouse, plasma, po, 50 mg/kg, PO 50 mg/kg, 0.083 hr, read-out: Plasma concentration Mean): 257 ng/mL
Structure (SMILES): CC(C)Cc1sc(Nc2ncc(-c3cccs3)cc2C(=O)O)nc1C(C)(C)C [Compound I-11]
abnormal clinical symptoms during in-life study (IV 5 mg/kg, PO 50 and 100 mg/kg single dose): No abnormal clinical symptoms were observed
Plasma concentration Individual (PO 100 mg/kg, 0.5 hr, 100 mg/kg): 4890 ng/mL and 6670 ng/mL and 11900 ng/mL
Plasma concentration Individual (PO 100 mg/kg, 4 hr, 100 mg/kg): 4840 ng/mL and 6930 ng/mL and 12800 ng/mL

Source: patent publication US20240208961A1, “EIF4E INHIBITORS AND USES THEREOF” (PIC Therapeutics, Inc., priority 2022, published 2024)
